Laboratory results from US20260069599A1, “INHIBITORS OF BROMODOMAIN-CONTAINING PROTEIN 4 AND PHOSPHOINOSITIDE 3-KINASE” (Board of Regents of the University of Nebraska, priority 2022, published 2026).

Legend:
DAOY cells [1] = test: Cell viability MTT assay in DAOY cells; format: cell-based, human; details: 48-72 hours
Protocol: For cell viability assay, DAOY cells from SHH-MB group and HD-MB03 from Group 3 MB were exposed to new analogs in a range of concentrations. In brief, cells were seeded in 96-well plate with a density of 3×10^3 cells/well density for 16 hours. Cells were then treated with different drug concentrations for 48-72 hours. MTT assay reagent was added to the cells and after incubation for 4 hours, formazan crystals were dissolved in 200 μL DMSO, and the absorbance was determined using a microplate reader (Molecular Devices Me5). The IC50 was determined by nonlinear least square regression by performing each experiment in triplicate.

HD-MB03 and DAOY cells = test: Western blot of target proteins; format: cell-based, human; details: for GLI1 and GLI2 protein expression: HD-MB03 and DAOY cells
Protocol: FIGS. 4A and 4B provide images of western blot analyses of target proteins after HDMB03 and DAOY cells were incubated with 5.0 μM of the indicated compounds for 48 hours. FIG. 4C (HD-MB03) and 4D (DAOY) provide western blot images which show the effects of MDP5 treatment on target proteins including GLI1 and GLI2. FIG. 4E provides representative confocal images of DAOY and HD-MB03 spheroids after treatment with 5.0 μM MDP5. […] Spheroids were stained for live (calcein AM) and dead (ethidium homodimer-1) cells after 7 days of treatment. Scale bars=200 μm. […] Next, cells were incubated with APC-CD15 for 30 minutes on ice in the dark. Before FACS analysis, samples were washed thrice with a staining buffer. FIG. 4G provides a graph showing the quantitation of CD15+ cells (n=3; p<0.05, control vs. treatment groups).
The whole protein from each treated group was extracted using RIPA buffer containing a cocktail of protease inhibitors (Sigma-Aldrich) for protein level determination. Protein concentration was determined using a BCA assay (Peirce). Next, 40 μg protein was subject to SDS-PAGE in a 10% gel. Following the transfer of targeted proteins onto polyvinylidene difluoride sheets, the membranes were washed with Tris-buffered saline plus Tween® 20 (TTBS; cat. no. WLA025; Wanleibio Co., Ltd.) for 5 minutes and then blocked with skimmed milk powder solution for 1 hour. Primary antibodies against Gli1 (1:1000), Gli2 (1:1000), MYCN (1:1,000), p-MYCN (1:1,000), Bcl-2 (1:1000), Bax (1:1000), p-PI3K (1:500), PI3K (1:1000), p-Akt (1:500), Akt (1:1000), Cyclin D1 (1:1000), and β-actin (1:1,000) were added and the membranes were incubated at 4° C. overnight. After an additional four washes with TBST, secondary IgG antibodies conjugated to horseradish peroxidase (1:5,000) were incubated with the membranes for 45 minutes at 37° C. Following a further six washes with TBST, the blots were developed using ECL start Western blotting detection kit (GE Healthcare) and the results were recorded in the iBright™ FL100 (Invitrogen). The relative expression levels of these proteins in different groups were calculated with the iBright™ software.

DAOY cells [2] = test: Annexin V/PI apoptosis assay in DAOY cells; format: cell-based, human; details: 48 hours of treatment; untreated 25.61%
Protocol: For apoptosis assay, the cells were collected as above and stained with 500 μL 1× binding buffer containing 5 μL annexin V-FITC and 10 μL propidium iodide (PI) in the dark for 5 minutes. Flow cytometry (FACSCalibur™ cytometer, BD Biosciences) was performed to quantify and calculate the cell apoptosis rate. AV-FITC values were set horizontally, and PI values were set as vertical axes. All experiments were performed in triplicate.

BRD4-BD2 = BRD4-BD2 (Homo sapiens, UniProt O60885); test: Protein Thermal Shift (PTS) assay on BRD4-BD2; format: binding; set-up: polyhistidine (N, cleaved yes); made in house; host or cells: E. coli (T7 express); details: 100 μM ligand, 20 μM BD protein
Protocol: The genes encoding human BRD2-BD1, BRD2-BD2, and BRD4-BD2 were codon-optimized for expression in E. coli. […] The sequence-confirmed plasmids were used to transform T7 express E coli. Large-scale cell cultures were grown in LB media containing […] carbenicillin and incubated with shaking at 37° C. until the OD600 nm reached 0.6. Then cultures were cooled to 16° C., and 1 mM isopropyl β-D-1-thiogalactopyranoside was added to induce the protein expression. After 20 hours of incubation, cells were harvested. The resulting cell pellet was resuspended in a lysis buffer containing 50 mM Tris pH 7.5, 200 mM NaCl, 0.5 mM imidazole, and 0.3 mM tris(2-carboxyethyl) phosphine (TECP). After the addition of DNase I and lysozyme, the cell suspension was incubated on ice for 30 minutes and lysed by sonication. The lysate was clarified by centrifugation at 12,000 rpm for 45 minutes. The resulting supernatant was applied to a 5 mL metal affinity cobalt column pre-equilibrated with lysis buffer. Then, 25 column volumes of lysis buffer were passed through the column to eliminate unbound E coli proteins. Recombinant protein was eluted isocratically with the elution buffer containing 50 mM Tris pH 7.5, 200 mM NaCl, 150 mM imidazole, and 0.3 mM TECP. The rhinovirus 3C protease was added to the eluted recombinant protein to cleave the N-terminal Histidine tag and the sample dialyzed against a buffer containing 50 mM Tris pH 7.5, 100 mM NaCl and 0.3 mM TECP. After 12 hours, the protein solution was passed through a 5 ml cobalt column, which was pre-equilibrated with dialysis buffer, and the recombinant protein lacking the His-tag was collected from the flowthrough.
Each reaction used 20 μM concentration of recombinant BD protein in a 50 mM Tris pH 7.5 buffer containing 100 mM NaCl, 0.3 mM tris(2-carboxyethyl) phosphine HCl, and 1% dimethyl sulfoxide. Protein Thermal Shift Dye (ThermoFisher) was also added at 1× concentration. Under these conditions, 3 protein melting curves with each respective BD and 100 μM final concentration of ligand were performed from 25 to 95° C. with a ramp rate of 0.5° C./minute. Evaluation of the derivative of the fluorescence signal employed the Applied Bioscience Protein Thermal Shift Software version 1.3 to determine the average melting temperature (Tm) for each sample and the standard deviation(s) of those Tm values.

DAOY and HDMB-03 cells = test: Transwell migration assay; format: cell-based, human; details: vs control
Protocol: FIGS. 2A-2D show the effect of MDP5 treatment on cell viability and migration potential in MB cells. FIGS. 2A and 2B provide graphs of cell viability assays with DAOY cells (FIG. 2A) and HD-MB03 cells (FIG. 2B) with the indicated compounds. FIG. 2C provides images of the Transwell® migration assay and FIG. 2D provides quantitation of the Transwell® migration assay (top: DAOY cells; bottom: HD-MB03 cells). Cells were fixed in formalin and stained with 0.5% crystal violet for 30 minutes. Images were taken using a microscope at 20× objective. Stained cells were then dissolved in acetic acid solution and optical density (OD) was measured at 590 nm. Scale bar: 100 μm. **P<0.01 and ***P<0.001 vs Control.
Further, the effect of MDPS on cell migration was investigated.

Row | SMILES | IC50 (DAOY cells [1]) [µM] | GLI2 protein accumulation (HD-MB03 and DAOY cells; compared with other treatments) | percentage of apoptotic cells, DAOY (DAOY cells [2]) [%] | BRD4-BD2 Tm increase (BRD4-BD2) [°C] | cells migrated in Transwell migration assay (DAOY and HDMB-03 cells) | IC50 (DAOY cells [1]; Homo sapiens, Daoy) [µM] | GLI1 and GLI2 protein expression (HD-MB03 and DAOY cells) | BRD4-BD2 Tm decrease (BRD4-BD2; thermal destabilization) [°C] | Cyclin D1, p-AKT (Ser473) and p-PI3K protein levels (HD-MB03 and DAOY cells; 5.0 μM, 48 hours) | p-MYCN (Ser54) level (HD-MB03 and DAOY cells; 5.0 μM, 48 hours) | GLI1 protein expression in HD-MB03 cells (HD-MB03 and DAOY cells; among treated HD-MB03 cells)
1 | O=c1cc(N2CCOCC2)oc2c(-c3ccc4c(c3)OCCO4)csc12 [SF2523, reference compound] | 12.6 | exceeded all other treatment options in terms of lowering GLI2 protein accumulation | 56.50 | 3.4 | decreased the amount of DAOY and HDMB-03 cells migrated |  |  |  |  |  | 
2 | O=C(/C=C/N1CCOCC1)c1cccc(-c2cc3c(cc2Br)OCCO3)c1O [MDP1, (E)-1-(3-(7-bromo-2,3-dihydrobenzo [b][1,4]dioxin-6-yl)-2-hydroxyphenyl)-3-morpholinoprop-2-en-1-one] |  |  | 61.31 |  | decreased the amount of DAOY and HDMB-03 cells migrated | 5.51 | decrease in levels of both proteins | 1.3 |  |  | 
3 | O=c1cc(N2CCOCC2)oc2c(-c3ccc4c(c3)OCCO4)cccc12 [MDP5, 8-(2,3-dihydrobenzo [b][1,4]dioxin-6-yl)-2-morpholino-4H-chromen-4-one] | 5.5 |  | 70.35 | 1.7 | decrease migration significantly | 5.57 | decrease in levels of both proteins |  | reduced | explicitly induced | largest reduction in GLI1 protein expression
